The source of these data is US20230116972A1, “CD38 MODULATORS AND METHODS OF USE THEREOF” (Cytokinetics, Inc., priority 2021, published 2023).

Assay [1] deals with T1, endogenous CD38 in HL60 cells (Homo sapiens, UniProt P28907).
T1 construct: endogenous in cells; host or cells: HL60 (leukemic cells, treated with all-trans retinoic acid)
T1 sequence (P28907 1-300): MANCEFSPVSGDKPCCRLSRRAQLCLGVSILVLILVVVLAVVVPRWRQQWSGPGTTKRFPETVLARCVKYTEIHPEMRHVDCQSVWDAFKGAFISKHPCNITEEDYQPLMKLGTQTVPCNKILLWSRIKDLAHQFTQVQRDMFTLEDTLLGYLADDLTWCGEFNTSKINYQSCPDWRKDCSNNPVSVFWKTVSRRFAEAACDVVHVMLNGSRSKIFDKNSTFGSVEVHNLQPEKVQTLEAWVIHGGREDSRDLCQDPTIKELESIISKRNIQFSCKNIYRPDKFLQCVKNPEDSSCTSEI
The assay is described as follows: cellular CD38 assay in HL60 cells (cellular NAD levels). Format: cell-based. To be noted: all-trans retinoic acid, 24 hours, read-out: hCD38 HL60 ATRA NAD Cell Diaphorase IC50. The essentials:
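HL60 cells (20000/well) were treated with compound in DMSO for 24 h. Cellular NAD was then measured by an enzymatic cycling mix (alcohol dehydrogenase, diaphorase, 40 uM resazurin, 10 uM FMN, 3% ethanol, Triton X-100, pH 8.4).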

The next assay has as its target T2, human CD38 (Homo sapiens, UniProt P28907).
T2 sequence (P28907 1-300): T1 sequence (P28907 1-300)
The assay is described as follows: human recombinant CD38 enzyme assay (hydrolysis of NAD+). The class given is biochemical. To be noted: human recombinant CD38, 0.4 nM enzyme, 62.5 μM NAD+; read-out: hCD38 BioChem IC50. The essentials:
(§1)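 Cell-free recombinant enzyme, NAD+ substrate, 60 min at RT. Stop/detect: ethanol/ADH plus semicarbazide and a CD38 inhibitor (15 min), then NaOH, then resazurin/diaphorase (15 min). Remaining NAD+ read as resorufin fluorescence, Ex/Em 540/590 nm. Inhibition fitted from dose responses.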

The target of a further assay is T3, mouse CD38 (Mus musculus, UniProt P56528).
T3 sequence (P56528 1-304): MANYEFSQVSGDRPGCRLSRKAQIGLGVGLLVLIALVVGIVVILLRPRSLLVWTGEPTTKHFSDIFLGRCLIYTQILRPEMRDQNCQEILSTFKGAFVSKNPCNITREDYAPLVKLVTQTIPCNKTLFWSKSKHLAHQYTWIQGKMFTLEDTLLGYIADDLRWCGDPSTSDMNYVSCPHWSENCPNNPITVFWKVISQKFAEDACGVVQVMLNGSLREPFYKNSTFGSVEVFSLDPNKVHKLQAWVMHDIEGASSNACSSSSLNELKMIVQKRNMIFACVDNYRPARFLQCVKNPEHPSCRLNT
Kind of assay: mouse recombinant CD38 enzyme assay (hydrolysis of NAD+). The class given is biochemical. To be noted: read-out: mCD38 BioChem IC50. The essentials: as §1

Regarding `O=C(Nc1ccc(C(F)F)nc1)c1nc(O)cc(-n2ccnc2)n1` [Compound 216, N-(6-(difluoromethyl)pyridin-3-yl)-4-hydroxy-6-(1H-imidazol-1-yl)pyrimidine-2-carboxamide], the values for the IC50 (in assay [1]; at human CD38; at mouse CD38) were 9420 nM, 66.6 nM and 49.3 nM, respectively.
Consider `O=C(NC1CC2(C1)CC(F)(F)C2)c1ccnc(-n2ccnc2)n1` [Compound 78, N-(6,6-difluorospiro[3.3]heptan-2-yl)-2-(1H-imidazol-1-yl)pyrimidine-4-carboxamide], for which the IC50 in assay [1] amounted to 1110 nM; at human CD38, 79 nM; on mouse CD38, 16 nM.
Taken in the same sequence, the figures for `CO[C@H]1CC[C@H](NC(=O)c2cncc(-c3cncn3C)n2)CC1` [Compound 91, N-((1r,4r)-4-methoxycyclohexyl)-6-(1-methyl-1H-imidazol-5-yl)pyrazine-2-carboxamide] were 2080 nM, 38 nM and 19 nM.
In the case of `Cn1cncc1-c1nc(C(=O)N[C@H]2CC[C@H](C(F)F)CC2)cc(C2CCOCC2)n1` [Compound 227, N-((1r,4r)-4-(difluoromethyl)cyclohexyl)-2-(1-methyl-1H-imidazol-5-yl)-6-(tetrahydro-2H-pyran-4-yl)pyrimidine-4-carboxamide], the figures for the IC50 (in assay [1]; on human CD38; on mouse CD38) were 2070 nM, 9.3 nM and 2.4 nM, respectively.
On to `O=C(N[C@H]1CC[C@H](O)CC1)c1cccc(-n2ccnc2)n1` [Compound 30, N-(4-hydroxycyclohexyl)-6-(1H-imidazol-1-yl)picolinamide], for which the IC50 in assay [1] was found to be 2830 nM; on human CD38 it was 85 nM; on mouse CD38 it was 14 nM.
Turning to `Cn1cncc1-c1ccnc(C(=O)N[C@H]2CC[C@H](C(F)F)CC2)n1` [Compound 75, N-((1r,4r)-4-(difluoromethyl)cyclohexyl)-4-(1-methyl-1H-imidazol-5-yl)pyrimidine-2-carboxamide], the values for the IC50 (in assay [1]; at human CD38; on mouse CD38) were 1360 nM, 41 nM and 19 nM, respectively.
On the same counts, the results for `Cn1cncc1-c1nc(C(=O)N[C@H]2CC[C@H](NCC(F)(F)F)CC2)cc(C2CCOCC2)n1` [Compound 300, 2-(1-methyl-1H-imidazol-5-yl)-6-(tetrahydro-2H-pyran-4-yl)-N-((1r,4r)-4-((2,2,2-trifluoroethyl)amino)cyclohexyl) pyrimidine-4-carboxamide] are 2120 nM, 15.7 nM and 1.6 nM.
Consider `CC(C)c1cc(C(=O)N[C@H]2CC[C@H](C(F)F)CC2)nc(-n2ccnc2)n1` [Compound 168, N-((1r,4r)-4-(difluoromethyl)cyclohexyl)-2-(1H-imidazol-1-yl)-6-isopropylpyrimidine-4-carboxamide], for which the figures for the IC50 (in assay [1]; at human CD38; at mouse CD38) were 8650 nM, 313 nM and 47 nM, respectively.
As to `CC(C)(O)c1cc(C(=O)Nc2ccc(C(F)(F)F)nc2)nc(-n2ccnc2)n1` [Compound 175, 6-(2-hydroxypropan-2-yl)-2-(1H-imidazol-1-yl)-N-(6-(trifluoromethyl)pyridin-3-yl)pyrimidine-4-carboxamide], the IC50 in assay [1] came to 6460 nM; on human CD38, 330 nM; on mouse CD38, 335 nM.
On to `Cn1cncc1-c1nc(C(=O)N[C@H]2CC[C@H](OC(F)F)CC2)cc(C2CCOCC2)n1` [Compound 281, N-((1r,4r)-4-(difluoromethoxy)cyclohexyl)-2-(1-methyl-1H-imidazol-5-yl)-6-(tetrahydro-2H-pyran-4-yl)pyrimidine-4-carboxamide], for which the IC50 in assay [1] came to 1330 nM; on human CD38, 4.1 nM; on mouse CD38 it was 1.3 nM.
With `CO[C@H]1CC[C@H](NC(=O)c2cc(C(F)(F)F)cc(-n3ccnc3)n2)CC1` [Compound 60, 6-(1H-imidazol-1-yl)-N-(4-methoxycyclohexyl)-4-(trifluoromethyl)picolinamide], the IC50 in assay [1] worked out at 4810 nM; on human CD38, 61 nM; on mouse CD38, 12 nM.
Regarding `O=C(NC1CC2C(C1)C2(F)F)c1cccc(-n2ccnc2)n1` (stereo not drawn) [Compound 135, N-(6,6-difluorobicyclo[3.1.0]hexan-3-yl)-6-(1H-imidazol-1-yl)picolinamide], the IC50 in assay [1] was 1320 nM; on human CD38, 76 nM; on mouse CD38, 15 nM.
Taken in the same sequence, the figures for `COCCO[C@H]1CC[C@H](NC(=O)c2nccc(-c3cncn3C)n2)CC1` [Compound 209, N-((1r,4r)-4-(2-methoxyethoxy)cyclohexyl)-4-(1-methyl-1H-imidazol-5-yl)pyrimidine-2-carboxamide] were 8540 nM, 104 nM and 35 nM.
`Cc1cc(C(=O)N[C@H]2CC[C@H](C(F)F)CC2)nc(-n2ccnc2)n1` [Compound 120, N-((1r,4r)-4-(difluoromethyl)cyclohexyl)-2-(1H-imidazol-1-yl)-6-methylpyrimidine-4-carboxamide]: the IC50 in assay [1] is 1130 nM; at human CD38, 10 nM; at mouse CD38, 2 nM.
With `Cn1cncc1-c1nc(C(=O)NC2CC3(COC3)C2)cc(C2CCC(F)(F)CC2)n1` [Compound 286, 6-(4,4-difluorocyclohexyl)-2-(1-methyl-1H-imidazol-5-yl)-N-(2-oxaspiro[3.3]heptan-6-yl)pyrimidine-4-carboxamide], the concentration for half-maximal inhibition (IC50) in assay [1] stood at 3730 nM; at human CD38, 8.1 nM; on mouse CD38, 1.2 nM.
With `O=C(N[C@H]1CC[C@H](OC(F)F)CC1)c1nccc(-n2ccnc2)n1` [Compound 293, N-((1r,4r)-4-(difluoromethoxy)cyclohexyl)-4-(1H-imidazol-1-yl)pyrimidine-2-carboxamide], the IC50 in assay [1] stood at 2830 nM; on human CD38, 58.5 nM; at mouse CD38 it was 36.2 nM.
Taken in the same sequence, the figures for `Cn1cncc1-c1nc(C(=O)Nc2ccc(C(F)F)nc2)cc(C2CCOCC2)n1` [Compound 197, N-(6-(difluoromethyl)pyridin-3-yl)-2-(1-methyl-1H-imidazol-5-yl)-6-(tetrahydro-2H-pyran-4-yl)pyrimidine-4-carboxamide] were 709 nM, 4.5 nM and 1 nM.
Consider `CCO[C@H]1CC[C@H](NC(=O)c2nccc(-n3ccnc3)n2)CC1` [Compound 258, N-((1r,4r)-4-ethoxycyclohexyl)-4-(1H-imidazol-1-yl)pyrimidine-2-carboxamide], for which the figures for the IC50 (in assay [1]; on human CD38; on mouse CD38) were 5580 nM, 71.6 nM and 36.4 nM, respectively.
As for `O=C(N[C@H]1CC[C@H](O)CC1)c1cc(C(F)(F)F)cc(-n2ccnc2)n1` [Compound 62, N-(4-hydroxycyclohexyl)-6-(1H-imidazol-1-yl)-4-(trifluoromethyl)picolinamide], the results for the IC50 (in assay [1]; at human CD38; on mouse CD38) were 6710 nM, 61 nM and 12 nM, respectively.
As for `CO[C@H]1CC[C@H](NC(=O)c2cc([C@H]3CC[C@@H](OC)CC3)nc(-c3cncn3C)n2)CC1` [Compound 315, N-((1r,4R)-4-methoxycyclohexyl)-6-((1s,4S)-4-methoxycyclohexyl)-2-(1-methyl-1H-imidazol-5-yl)pyrimidine-4-carboxamide], the IC50 turned out to be 2280 nM in assay [1], 13.7 nM on human CD38 and 1.8 nM on mouse CD38.
On the same counts, the results for `Cn1cncc1-c1nc(C(=O)Nc2ccc(C(F)(F)F)nc2)cc(C2CCC(F)(F)CC2)n1` [Compound 285, 6-(4,4-difluorocyclohexyl)-2-(1-methyl-1H-imidazol-5-yl)-N-(6-(trifluoromethyl)pyridin-3-yl)pyrimidine-4-carboxamide] are 1240 nM, 8.6 nM and 1 nM.
Take `O=C(N[C@H]1CC[C@H](O)CC1)c1nccc(-n2ccnc2)n1` [Compound 257, N-((1r,4r)-4-hydroxycyclohexyl)-4-(1H-imidazol-1-yl)pyrimidine-2-carboxamide]: the IC50 in assay [1] was determined as 4520 nM; on human CD38 it was 124 nM; at mouse CD38, 43.4 nM.
`Cn1cncc1-c1cc(C(C)(C)C)nc(C(=O)Nc2ccc(C(F)F)nc2)n1` [Compound 189, 4-(tert-butyl)-N-(6-(difluoromethyl)pyridin-3-yl)-6-(1-methyl-1H-imidazol-5-yl)pyrimidine-2-carboxamide]: the IC50 in assay [1] was 8510 nM; at human CD38, 333 nM; on mouse CD38 it was 261 nM.

By IC50 is commonly meant the concentration that inhibits the measured activity by half.
